Structures can show the parent of a compound that is named as a salt. Where two headings read alike, the source gives them in different places.
Tests used:
[1] = tested on: promastigote forms of Leishmania infantum; assay: In vitro antileishmanial activity in promastigote cultures (MTT), L. infantum; assay type: cell-based, Leishmania infantum MHOM/TN/80/IPT1/LEM 235; conditions: promastigotes, 72 h incubation, mean ± SEM, n = 3-4 (each run in duplicate), read-out: IC50 (μM) L. infantum MON 235
Experimental: (§1) Determination of in Vitro Antileishmanial Activity in Promastigote Cultures.
(§2) The effect of the phospholipids according to the present invention against the promastigote forms of Leishmania donovani and Leishmania infantum was evaluated using an MTT (3-(4,5-dimethylthiazol-2yl)-2,5-diphenyltetrazolium bromide)-based enzymatic method as a marker of cell viability and was compared with that of the ether phospholipid hexadecylphosphocholine (Miltefosine). Thus, promastigotes of Leishmania infantum MHOM/TN/80/IPT1/LEM 235 and Leishmania donovani MHOM/IN/80/DD8/LEM 703, were grown in RPMI 1640 supplemented with 10% FCS, L. glutamine and antibiotics, at 26° C. All new compounds were dissolved in DMSO to a final concentration of 9.625 mM and linear 3-fold dilutions were done in the culture medium. 25 μL of promastigote culture at 5×10^5 cells/mL were cultured in a 96-well flat-bottom plate (Costar 3696), and incubated with 25 μL of different drug concentrations at 26° C. After 72 h, 10 μL of 5 mg/mL MTT in PBS (SIGMA M2128) were added and incubation was continued for 3 h. The reaction was stopped by the addition of 50 μL of 50% isopropanol, 10% SDS under gentle shacking for 30 min. Absorbance was measured at 550 nm with reference at 620 nm in a TRITURUS microplate reader.

[2] = tested on: promastigote forms of Leishmania donovani; assay: In vitro antileishmanial activity in promastigote cultures (MTT), L. donovani; assay type: cell-based, Leishmania donovani MHOM/IN/80/DD8/LEM 703; conditions: promastigotes, 72 h incubation, mean ± SEM, n = 3-4 (each run in duplicate), read-out: IC50 (μM) L. donovani MON 703
Experimental: as §1, §2

THP1 cells = assay: Assessment of cytotoxicity in THP1 monocyte cells (SYBR-14/PI staining, flow cytometry); conditions: THP1 monocytes infected with L. donovani and L. infantum; 72 hours; concentrations as low as 50 μM
Experimental: Thus, we proceeded to assess the cytotoxicity of four inventive compounds as well as miltefosine in the human monocytic cell line THP1.
Assessment of Cytotoxicity in THP1 Monocyte Cells.
As a quantitative measurement of the cell damage after incubation with different concentrations of drugs dual staining with SYBR-14 and PI (Molecular Probes, The Netherlands) was used followed by flow cytometry.
THP1 cell cultures were incubated at 1×10^6 cells/ml with different concentrations of the compounds ranging from 50 to 1.56 μM. After an incubation period of 72 hours approximately 4×10^6 cells were suspended in labeling buffer (10 mM HEPES, 150 mM NaCl, 10% BSA, pH 7.4) and 10 μg/ml PI and 0.1 mg/ml SYBR-14 were added. The cultures were incubated at 37° C. for 30 minutes before analysis by flow cytometry.
Cell samples were analyzed on an Epics Elite model flow cytometer (Coulter, Miami, Fla.). The green fluorescence of SYBR-14 and the red fluorescence of PI were excited at 488 nm. At least 10,000 cells were analyzed per sample and each staining experiment was repeated twice. Data analysis was performed on fluorescence intensities that excluded cell autofluorescence and cell debris.
THP1 monocytes infected with the appropriate Leishmania species were used for the evaluation of the leishmanicidal activity of the compounds against the intracellular amastigote stages of the parasite.

cutaneous leishmaniasis = conditions: phase I study; 100-150 mg for 3 weeks; cited from earlier work
visceral leishmaniasis = conditions: cited from earlier work

Q: Which IC50 [1] does the source give for `C[N+](C)(C)CCOP(=O)([O-])OCCCCCCCCCCC=C1C2CC3CC(C2)CC1C3` [Example 19, 1-{2-[(11-Adamantylideneundecyloxy)hydroxyphosphinyloxy]ethyl}-N,N,N-trimethylammonium inner salt] here?
A: Its IC50 is 6.75 ± 2.4 µM.

Q: And the IC50 [2]?
A: Its IC50 is 3.16 ± 0.63 µM.

Q: What about the “cytotoxic effect on THP1 cells (percentage of live THP1 cells, FIG. 1)” value (THP1 cells) of the same compound?
A: Its value is “not observed”.

Q: Which results are given for `CCCCCCCCCCCCCCCCOP(=O)([O-])OCC[N+](C)(C)C` [Miltefosine, hexadecylphosphocholine]?
A: IC50 ([1]; Leishmania infantum): 22.6 ± 3.6 µM; IC50 ([2]; Leishmania donovani): 23.7 ± 4.07 µM; cure rate (cutaneous leishmaniasis): 94%; effectiveness in treating mice infected with visceral leishmaniasis (visceral leishmaniasis; mice): highly effective; effectiveness of oral treatment relative to subcutaneous administration of pentostam (visceral leishmaniasis; oral miltefosine vs subcutaneous pentostam, mice infected with visceral leishmaniasis): 600 fold

Q: What does the source list for `C[N+](C)(C)CCOP(=O)([O-])OCCCCCCCCCCC=C1CCCCC1` [Example 13, 1-{2-[(11-Cyclohexylideneundecyloxy)hydroxyphosphinyloxy]ethyl}-N,N,N-trimethylammonium inner salt]?
A: IC50 [1]: 5.2 ± 1.5 µM; IC50 [2]: 2.4 ± 0.6 µM; cytotoxic effect on THP1 cells (percentage of live THP1 cells, FIG. 1) (THP1 cells): not observed
